Broadly, the IC50 is the midpoint of a concentration-inhibition curve.

The target of one assay is T1, CDK1 (cyclin dependent kinase 1) / cyclin B (Homo sapiens, UniProt P06493).
T1 construct: purchased New England Biolabs 6020; host or cells: insect cells
T1 sequence (P06493 whole entry): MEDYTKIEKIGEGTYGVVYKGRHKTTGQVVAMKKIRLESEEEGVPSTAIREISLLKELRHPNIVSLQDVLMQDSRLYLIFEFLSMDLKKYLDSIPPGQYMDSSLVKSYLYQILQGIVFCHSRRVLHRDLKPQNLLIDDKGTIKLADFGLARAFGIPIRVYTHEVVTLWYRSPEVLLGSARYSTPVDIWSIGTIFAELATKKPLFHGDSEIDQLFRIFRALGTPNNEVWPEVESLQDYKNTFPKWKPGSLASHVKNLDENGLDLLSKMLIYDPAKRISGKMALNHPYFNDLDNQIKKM
T1 sequence (P14635 whole entry partner): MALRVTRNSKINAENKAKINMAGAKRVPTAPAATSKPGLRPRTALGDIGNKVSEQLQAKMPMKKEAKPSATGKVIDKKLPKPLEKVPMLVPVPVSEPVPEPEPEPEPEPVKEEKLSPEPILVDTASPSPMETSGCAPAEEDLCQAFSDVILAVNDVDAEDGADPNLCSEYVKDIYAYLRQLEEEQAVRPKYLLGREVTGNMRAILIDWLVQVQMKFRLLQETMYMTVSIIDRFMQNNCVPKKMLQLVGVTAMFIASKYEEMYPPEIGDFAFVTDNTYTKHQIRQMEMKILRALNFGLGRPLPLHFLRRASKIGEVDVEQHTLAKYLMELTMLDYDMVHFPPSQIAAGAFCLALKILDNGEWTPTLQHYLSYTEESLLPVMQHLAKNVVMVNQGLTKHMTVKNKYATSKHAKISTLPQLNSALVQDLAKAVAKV
Kind of assay: CDK1 kinase assay. In kind it is biochemical. Particulars: Table 4 kinase selectivity; 10 = approximate value; read-out: IC50, Assay 2 CDK1. On the procedure: (§1) The term n.d. means not tested.
Assays to test compound inhibition of other kinases were preformed using methods that measure the amount of phosphorylation of a biotinylated peptide substrate. Biotinylated peptide substrates were selected from the literature as appropriate for the enzyme being evaluated. The general procedure used to assay for kinase activity is as follows: A kinase reaction mix was prepared in 50 mM Tris-HCl pH=8, 10 mM MgCl2, 0.1 mM NaVO4, 1 mM DTT, 5-10 μM ATP, 0.25-1 μM biotinylated peptide substrate, 0.2-0.8 μCuries per well ^33P-γ-ATP [2000-3000 Ci/mmol]. Assay conditions vary slightly for each protein kinase, for example, insulin receptor kinase requires 10 mM MnCl2 for activity and Calmodulin-dependent protein kinase requires calmodulin and 2 mM CaCl2. The reaction mixture was dispensed into the wells of a streptavidin coated Flashplate and 1 μl drug stock in 100% DMSO was added to a 100 μl reaction volume resulting in a final concentration of 1% DMSO in the reaction. Enzyme was diluted in 50 mM Tris-HCl pH=8.0, 0.1% BSA and added to each well. The reaction was incubated for one hour at 30° C. in the presence of compound. After one hour the reaction mix was aspirated from the plate and the plate was washed with PBS containing 100 mM EDTA. The plate was read on a scintillation counter to determine ^33P-γ-ATP incorporated into the immobilized peptide. […] A maximum and minimum signal for the assay was determined on each plate. The IC50 was calculated from the dose response curve of the percent inhibition of the maximum signal in the assay according to the formula [max signal−background/test compound signal−background (100)=% inhibition] by graphing the percent inhibition against the log concentration of test compound. Known inhibitor compounds appropriate for the kinase being assayed were also included on each plate.
VEGF-R (vascular endothelial growth factor receptor-2) is a fusion protein containing a polyhistidine tag at the N-terminus followed by amino acids 786-1343 of the rat VEGF-R2 kinase domain (GenBank Accession #U93306). CDK1 (cyclin dependent kinase 1) is isolated from insect cells expressing both the human CDK1 catalytic subunit and its positive regulatory subunit cyclin B (New England Biolabs, Beverly, Mass., Cat. #6020). CDK4 (cyclin dependent kinase 4) contains amino acids 769 to 921 of the mouse […] protein found in the GST-retinoblastoma protein construct (Santa Cruz Biotechnology, Santa Cruz, Calif.; Cat. #SC-4112). Insulin Receptor Kinase consists of residues 941-1313 of the cytoplasmic domain of the beta-subunit of the human insulin receptor (BIOMOL, Plymouth Meeting, Pa., Cat. #SE-195). Protein Kinase A is the catalytic subunit of cAMP dependent protein kinase-A purified from bovine heart (Upstate Biotech, Lake Placid, N.Y., Cat#14-114). PKC (protein kinase-C) is the gamma or beta isoform of the human protein produced in insect cells (BIOMOL, Plymouth Meeting, Pa., Cat. #SE-143). Casein Kinase 1 is a truncation at amino acid 318 of the C-terminal portion of the rat CK1 delta isoform produced in E.coli (New England Biolabs, Beverly, Mass., Cat. #6030). Casein Kinase 2 includes the alpha and beta subunits of the human CK2 protein produced in E.coli (New England Biolabs, Beverly, Mass., Cat. #6010). Calmodulin Kinase (calmodulin-dependent protein kinase 2) is a truncated version of the alpha subunit of the rat protein produced in insect cells (New England Biolabs, Beverly, Mass., Cat. #6060). Glycogen Synthase Kinase-3 is the beta isoform of the rabbit enzyme produced in E. coli (New England Biolabs, Beverly, Mass., Cat. #6040). MAP Kinase is the rat ERK-2 isoform containing a polyhistidine tag at the N-terminus produced in E. coli. and activated by phosphorylation with MEK1 prior to purification (BIOMOL, Plymouth Meeting, Pa., Cat. #SE-137). EGFR (epidermal growth factor receptor) is purified from human A431 cell membranes (Sigma, St. Louis, Mo., Cat.# E3641). […]
On to `CCOC(=O)CCCNc1cncc(-c2cncc(Nc3cccc(Cl)c3)n2)c1` [Cmd 84], for which the IC50 stood at 2.03 µM.

For `COCCOCCNc1cncc(-c2cncc(Nc3cccc(Cl)c3)n2)c1` [Cmd 85], the IC50 is over 10 µM.

Staying with this assay, now noted: Tables 1-3; >10 or >100 = no 50% inhibition at highest dose tested; read-out: CDK IC50.
Take `Clc1ccc(Nc2cncc(-c3cncc(NCCCc4ccncc4)c3)n2)cc1` [Cmd 87]: the IC50 is over 10 µM.

Regarding `Clc1ccc(Nc2cncc(-c3cncc(NCCCc4ccncc4)c3)n2)cc1Cl` [Cmd 89], the half-maximal inhibitory concentration (IC50) is over 10 µM.

For the compound `CC(=O)Nc1ncc(NCCCO)cc1-c1cncc(Nc2cccc(Cl)c2)n1` [Cmd 109], the IC50 is over 10 µM.

Consider `O=C(COc1ccccc1)Nc1cncc(-c2cncc(Nc3cccc(Cl)c3)n2)c1` [Cmd 99], for which the IC50 was over 10 µM.

`CCOCCCNC(=O)c1cncc(-c2cncc(Nc3cccc(Cl)c3)n2)c1` [Cmd 40]: the IC50 is over 100 µM.

Turning to `COCCOCC(=O)Nc1cncc(-c2cncc(Nc3cccc(Cl)c3)n2)c1` [Cmd 98], the half-inhibitory concentration (IC50) was over 10 µM.

Take `CCOC(=O)CCCNc1cncc(-c2cncc(Nc3cccc(Cl)c3)n2)c1` [Cmd 84]: the IC50 stood at 2.03 µM.

On to `OCCNc1cncc(-c2cncc(Nc3cccc(Cl)c3)n2)c1` [Cmd 31], for which the IC50 was about 10 µM.

In the case of `Clc1cccc(Nc2cncc(-c3cncc(NCc4ccccc4)c3)n2)c1` [Cmd 82], the IC50 was over 10 µM.

In the case of `CN(C)CCCNC(=O)c1cncc(-c2cncc(Nc3cccc(Cl)c3)n2)c1` [Cmd 37], the IC50 is over 100 µM.

Consider `OCCCNc1cnc(Cl)c(-c2cncc(Nc3cccc(Cl)c3)n2)c1` [Cmd 110], for which the IC50 was over 10 µM.

Consider `Clc1cccc(Nc2cncc(-c3cncc(NCCCc4ccccc4)c3)n2)c1` [Cmd 80], for which the half-maximal inhibitory concentration (IC50) is over 10 µM.

For the compound `COc1cccc(Nc2cncc(-c3cncc(NCCCO)c3)n2)c1` [Cmd 57], the concentration for half-maximal inhibition (IC50) is 81.4 µM.

For the compound `COCCOCCNc1cncc(-c2cncc(Nc3cccc(Cl)c3)n2)c1` [Cmd 85], the concentration for half-maximal inhibition (IC50) was over 10 µM.

The target of another assay is T2, VEGF-R (vascular endothelial growth factor receptor-2) (Rattus norvegicus, UniProt O08775).
T2 construct: polyhistidine (6xHis) (N)
T2 sequence (O08775 786-1343): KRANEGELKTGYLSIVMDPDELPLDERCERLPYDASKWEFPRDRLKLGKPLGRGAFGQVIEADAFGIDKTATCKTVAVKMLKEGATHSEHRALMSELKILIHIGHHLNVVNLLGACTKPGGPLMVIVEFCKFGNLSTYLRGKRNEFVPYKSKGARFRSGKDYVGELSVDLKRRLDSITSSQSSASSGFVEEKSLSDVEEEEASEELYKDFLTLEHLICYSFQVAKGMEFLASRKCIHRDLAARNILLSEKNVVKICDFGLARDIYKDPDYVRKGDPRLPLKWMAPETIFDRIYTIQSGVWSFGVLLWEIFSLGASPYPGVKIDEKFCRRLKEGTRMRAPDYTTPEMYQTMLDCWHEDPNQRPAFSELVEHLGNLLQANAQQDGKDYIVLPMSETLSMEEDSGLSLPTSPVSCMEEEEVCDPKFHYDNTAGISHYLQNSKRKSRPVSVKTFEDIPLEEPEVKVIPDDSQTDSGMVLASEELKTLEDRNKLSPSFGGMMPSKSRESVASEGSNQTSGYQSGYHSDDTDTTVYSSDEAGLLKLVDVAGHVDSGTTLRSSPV
Kind of assay: VEGF-R screening assay (33P FlashPlate kinase assay). In kind it is biochemical. The settings on record: Table 4 kinase selectivity; read-out: IC50, Assay 1 VEGF-R. As to the method: A kinase reaction mixture was prepared containing 50 mM Tris-HCl pH=8, 10 mM MgCl2, 0.1 mM NAPO4, 1 mM DTT, 10 μM ATP, 0.025 μM biotinylated peptide substrate and 0.8 μCuries per well ^33P-γ-ATP [2000-3000 Ci/mmol]. 70 μl of the kinase reaction mixture was dispensed into the well of a streptavidin coated FlashPlate™ (Cat. # SMP103, NEN, Boston, Mass.). Then 1 μl of test compound stock in 100% DMSO was added to the wells resulting in a final concentration of 1% DMSO in the reaction with a 100 μl final reaction volume. Next, soluble rat tyrosine kinase containing an N-terminal 6×HIS tag was diluted in 50 mM Tris-HCl pH=8.0, 0.1% BSA at a concentration of 5 ng per microliter and 30 μl (150 ng enzyme per test well) was added to each well to initiate the reaction. The reaction was incubated for one hour at 30° C. At the end of the 1-hour incubation, the reaction was terminated by aspirating the reaction mixture from the plate and washing the wells twice with PBS containing 100 mM EDTA. The PLCI biotinylated peptide substrate becomes immobilized on the Flashplate™ and the incorporation of ^33P-γ-ATP was measured by reading the plate on a scintillation counter. Inhibition of the enzymatic activity of the VEGF-R was measured by observing a reduced amount of ^33P-γ-ATP incorporated into the immobilized peptide.
as §1
Assays to test compound inhibition of other kinases were preformed using methods that measure the amount of phosphorylation of a biotinylated peptide substrate. Biotinylated peptide substrates were selected from the literature as appropriate for the enzyme being evaluated. The general procedure used to assay for kinase activity is as follows: A kinase reaction mix was prepared in 50 mM Tris-HCl pH=8, 10 mM MgCl2, 0.1 mM NaVO4, 1 mM DTT, 5-10 μM ATP, 0.25-1 μM biotinylated peptide substrate, 0.2-0.8 μCuries per well ^33P-γ-ATP [2000-3000 Ci/mmol]. Assay conditions vary slightly for each protein kinase, for example, insulin receptor kinase requires 10 mM MnCl2 for activity and Calmodulin-dependent protein kinase requires calmodulin and 2 mM CaCl2. The reaction mixture was dispensed into the wells of a streptavidin coated Flashplate and 1 μl drug stock in 100% DMSO was added to a 100 μl reaction volume resulting in a final concentration of 1% DMSO in the reaction. Enzyme was diluted in 50 mM Tris-HCl pH=8.0, 0.1% BSA and added to each well. The reaction was incubated for one hour at 30° C. in the presence of compound. After one hour the reaction mix was aspirated from the plate and the plate was washed with PBS containing 100 mM EDTA. The plate was read on a scintillation counter to determine ^33P-γ-ATP incorporated into the immobilized peptide. Test compounds were assayed in duplicate at 8 concentrations [100 tM, 10 μM, 1 μM, 100 nM, 10 nM, 1 nM, 100 μM, 10 μM]. A maximum and minimum signal for the assay was determined on each plate. The IC50 was calculated from the dose response curve of the percent inhibition of the maximum signal in the assay according to the formula [max signal−background/test compound signal−background (100)=% inhibition] by graphing the percent inhibition against the log concentration of test compound. Known inhibitor compounds appropriate for the kinase being assayed were also included on each plate.
VEGF-R (vascular endothelial growth factor receptor-2) is a fusion protein containing a polyhistidine tag at the N-terminus followed by amino acids 786-1343 of the rat VEGF-R2 kinase domain (GenBank Accession #U93306). CDK1 (cyclin dependent kinase 1) is isolated from insect cells expressing both the human CDK1 catalytic subunit and its positive regulatory subunit cyclin B (New England Biolabs, Beverly, Mass., Cat. #6020). CDK4 (cyclin dependent kinase 4) contains amino acids 769 to 921 of the mouse […] protein found in the GST-retinoblastoma protein construct (Santa Cruz Biotechnology, Santa Cruz, Calif.; Cat. #SC-4112). […]
As to `CCOC(=O)CCCNc1cncc(-c2cncc(Nc3cccc(Cl)c3)n2)c1` [Cmd 84], the IC50 was found to be 0.125 µM.

`COCCOCCNc1cncc(-c2cncc(Nc3cccc(Cl)c3)n2)c1` [Cmd 85]: the IC50 worked out at 0.085 µM.

The assay is the same for the next values; noted with them: Tables 1-3; >10 or >100 = no 50% inhibition at highest dose tested; read-out: VEGF-R IC50.
With `Clc1ccc(Nc2cncc(-c3cncc(NCCCc4ccncc4)c3)n2)cc1` [Cmd 87], the half-inhibitory concentration (IC50) came to 1 µM.

`Clc1ccc(Nc2cncc(-c3cncc(NCCCc4ccncc4)c3)n2)cc1Cl` [Cmd 89]: the half-inhibitory concentration (IC50) worked out at 0.268 µM.

For `CC(=O)Nc1ncc(NCCCO)cc1-c1cncc(Nc2cccc(Cl)c2)n1` [Cmd 109], the IC50 is over 10 µM.

With `O=C(COc1ccccc1)Nc1cncc(-c2cncc(Nc3cccc(Cl)c3)n2)c1` [Cmd 99], the IC50 was over 10 µM.

For `CCOCCCNC(=O)c1cncc(-c2cncc(Nc3cccc(Cl)c3)n2)c1` [Cmd 40], the IC50 is over 100 µM.

In the case of `COCCOCC(=O)Nc1cncc(-c2cncc(Nc3cccc(Cl)c3)n2)c1` [Cmd 98], the 50% inhibitory concentration (IC50) is 0.99 µM.

Regarding `CCOC(=O)CCCNc1cncc(-c2cncc(Nc3cccc(Cl)c3)n2)c1` [Cmd 84], the IC50 came out at 0.125 µM.

For `OCCNc1cncc(-c2cncc(Nc3cccc(Cl)c3)n2)c1` [Cmd 31], the concentration for half-maximal inhibition (IC50) came out at 0.15 µM.

Take `Clc1cccc(Nc2cncc(-c3cncc(NCc4ccccc4)c3)n2)c1` [Cmd 82]: the 50% inhibitory concentration (IC50) was 4.3 µM.

Regarding `CN(C)CCCNC(=O)c1cncc(-c2cncc(Nc3cccc(Cl)c3)n2)c1` [Cmd 37], the IC50 worked out at 5.5 µM.

For the compound `OCCCNc1cnc(Cl)c(-c2cncc(Nc3cccc(Cl)c3)n2)c1` [Cmd 110], the IC50 is over 10 µM.

Take `Clc1cccc(Nc2cncc(-c3cncc(NCCCc4ccccc4)c3)n2)c1` [Cmd 80]: the half-maximal inhibitory concentration (IC50) amounted to 2.28 µM.

In the case of `COc1cccc(Nc2cncc(-c3cncc(NCCCO)c3)n2)c1` [Cmd 57], the 50% inhibitory concentration (IC50) turned out to be 0.81 µM.

`COCCOCCNc1cncc(-c2cncc(Nc3cccc(Cl)c3)n2)c1` [Cmd 85]: the IC50 was determined as 0.085 µM.

Source of the values: patent US6710048B2, “Pyrazine derivatives as modulators of tyrosine kinases” (Ortho-McNeil Pharmaceutical, Inc., priority 2000, dated 2004).
